Assays:
MDA-MB-231 [1] = assay: Antimigratory activity in human MDA-MB-231 cells after 24 hrs by wound healing assay; conditions: MDA-MB-231, 24 h
MCF7 = assay: cells; conditions: Homo sapiens, MCF7, 72 h
MDA-MB-231 [2] = assay: Antiproliferative activity against human MDA-MB-231 cells after 72 hrs by MTT assay; conditions: MDA-MB-231, 72 h

Compound | IC50 (MDA-MB-231 [1]) [µM] | IC50 (MDA-MB-231 [1]; read-out: pIC50 (converted)) [µM] | IC50 (MCF7) [µM] | IC50 (MDA-MB-231 [2]) [µM]
C[C@H]1C(=O)C[C@@H]2[C@@](C)(O)CC[C@]2(O)C(C)(C)[C@@H]1CC[C@H]1[C@]2(C)CCC(=O)C(C)(C)O[C@H]2CC[C@@]1(C)O | 38.3 | 38.3 | > 50 | > 50
C[C@@H]1CC[C@H]2[C@@H](/C1=C/C[C@H]1[C@]3(C)CCC(=O)C(C)(C)O[C@H]3CC[C@@]1(C)O)C(C)(C)CC[C@]2(C)O | 28 | 28 | > 50 | > 50
CC(=O)O[C@H]1CC[C@]2(C)[C@H](CC[C@@](C)(O)[C@H]2CC[C@@H]2C(C)=CC[C@H]3[C@H](CC[C@]3(C)O)C2(C)C)OC1(C)C | 16.8 |  | 47.9 | 38
C[C@@H]1C(=O)C[C@H]2[C@@H](/C1=C/C[C@H]1[C@]3(C)CC[C@H](O)C(C)(C)O[C@H]3CC[C@@]1(C)O)C(C)(C)CC[C@]2(C)O | > 50 | 69 | > 50 | > 50
CC1(C)O[C@H]2CC[C@@](C)(O)[C@@H](CC[C@@H]3C(C=O)=CC[C@H]4[C@H](CC[C@]4(C)O)C3(C)C)[C@]2(C)CCC1=O | 42.6 | 42.6 | > 50 | > 50
CC(C)=CCC[C@@]1(C)C(CC[C@H]2[C@]3(C)CC[C@H](O)C(C)(C)O[C@H]3CC[C@@]2(C)O)=C(C)CC[C@H]1O [SIPHONELLINOL D] | > 50 | 67.3 | > 50 | > 50
CC1(C)O[C@H]2CC[C@@](C)(O)[C@@H](CC[C@H]3C(C)(C)[C@@]4(O)CC[C@](C)(O)[C@H]4C[C@H]4O[C@]43C)[C@]2(C)CCC1=O | 33 | 33 | > 50 | > 50
CC1(C)O[C@H]2CC[C@@](C)(O)[C@@H](CC[C@@H]3C(CO)=CC[C@H]4[C@H](CC[C@]4(C)O)C3(C)C)[C@]2(C)CCC1=O | > 50 | 77.8 | > 50 | > 50
CC1=C(CC[C@H]2[C@]3(C)CC[C@H](O)C(C)(C)O[C@H]3CC[C@@]2(C)O)[C@](C)(C/C=C/C(C)(C)OO)[C@H](O)CC1 | > 50 | 54 | 27.4 | > 50
CC1=CC[C@H]2[C@H](CC[C@]2(C)O)C(C)(C)[C@@H]1CC[C@H]1[C@]2(C)CC[C@H](OC(=O)CCC(=O)O)C(C)(C)O[C@H]2CC[C@@]1(C)O | 18 | 18 | > 50 | 27.9
CC(=O)O[C@H]1CC[C@]2(C)[C@H](CC[C@@](C)(O)[C@H]2CC[C@@H]2C(C)=CC[C@@H]3C(C)=CC[C@@H]3C2(C)C)OC1(C)C | 16 | 16 | 43.5 | 39.2
CC1=CCC2C(CC[C@@]2(C)O)C(C)(C)C1CC[C@@H]1[C@@]2(C)CCC(=O)C(C)(C)O[C@@H]2CC[C@]1(C)O (stereo not given in full) [SIPHOLENONE A] | 28.1 | 28.1 | > 50 | > 50
CC1=CC[C@H]2[C@@H]1CC=C(C)[C@@H](CCC1=C(C)CC[C@@H]3OC(C)(C)[C@@H](O)CC[C@@]13C)C2(C)C | 46.7 | 46.7 | > 50 | > 50
CC1=CC[C@H]2[C@H](CC[C@]2(C)O)C(C)(C)[C@@H]1CC[C@H]1[C@]2(C)CC[C@@H](O)O[C@H]2CC[C@@]1(C)O | 48 | 48 | > 50 | > 50
CC1=CC[C@H]2[C@H](CC[C@]2(C)O)C(C)(C)[C@@H]1CC[C@H]1[C@]2(C)CC[C@H](OC(=O)c3ccc(Cl)cc3)C(C)(C)O[C@H]2CC[C@@]1(C)O | 5.3 | 5.3 | 24.1 | 10.3
C[C@H]1C(=O)C[C@H]2[C@H](CC[C@]2(C)O)C(C)(C)[C@@H]1CC[C@H]1[C@]2(C)CC[C@H](O)C(C)(C)O[C@H]2CC[C@@]1(C)O | 47.5 | 47.5 | > 50 | > 50
CC1=CC[C@H]2[C@@H]1CC=C(C)[C@@H](CC[C@H]1[C@]3(C)CC[C@H](OC(=O)c4ccc(C)cc4)C(C)(C)O[C@H]3CC[C@@]1(C)O)C2(C)C | 12.3 | 12.3 | > 50 | 32.7
CC1=CC[C@H]2[C@H](CC[C@]2(C)O)C(C)(C)[C@@H]1CC[C@H]1[C@]2(C)CC[C@H](OC(=O)NCc3ccccc3)C(C)(C)O[C@H]2CC[C@@]1(C)O | 13.9 | 13.9 | 24.5 | 40.3
CC1=CC[C@H]2[C@@H]1CC=C(C)[C@@H](CC[C@H]1[C@]3(C)CC[C@H](OC(=O)c4ccccc4)C(C)(C)O[C@H]3CC[C@@]1(C)O)C2(C)C | 7.2 | 7.19 | 23.1 | 18.4

Compound | IC50 (MDA-MB-231 [1]) [µM] | IC50 (MDA-MB-231 [1]; read-out: pIC50 (converted)) [µM] | IC50 (MCF7) [µM] | IC50 (MDA-MB-231 [2]) [µM]
CC1=CC[C@H]2[C@H](CC[C@]2(C)O)C(C)(C)[C@@H]1CC[C@H]1[C@]2(C)CC/C(=N/OCc3ccccc3)C(C)(C)O[C@H]2CC[C@@]1(C)O | 31.4 | 31.4 | > 50 | 38.2
CC1=C(CC[C@H]2[C@]3(C)CC[C@H](O)C(C)(C)O[C@H]3CC[C@@]2(C)O)[C@@H]2[C@H](C[C@H]1C(=O)O)[C@@](C)(O)CCC2(C)C | 45 | 45 | 39.8 | > 50
CC1=CC[C@H]2[C@@H]([C@@H]1CC[C@H]1[C@]3(C)CC[C@H](O)C(C)(C)O[C@H]3CC[C@@]1(C)O)C(C)(C)CC[C@]2(C)O | 42 | 42 | > 50 | > 50
CC1=CC[C@H]2[C@H](CC[C@]2(C)O)C(C)(C)[C@@H]1CC[C@H]1[C@]2(C)CC[C@H](OC(=O)c3ccc(C)cc3)C(C)(C)O[C@H]2CC[C@@]1(C)O | 11.8 | 11.8 | > 50 | 33.4
CC1=CC[C@H]2[C@H](CC[C@]2(C)O)C(C)(C)[C@@H]1CC[C@H]1[C@]2(C)CC[C@H](OC(=O)c3ccncc3)C(C)(C)O[C@H]2CC[C@@]1(C)O | 10.6 | 10.6 | 25.3 | 18
CC1=C(CC[C@H]2[C@]3(C)CC[C@H](O)C(C)(C)O[C@H]3CC[C@@]2(C)O)[C@@H]2[C@H](CC1=O)[C@@](C)(O)CCC2(C)C | > 50 | 84.9 | > 50 | > 50
CC1=C(CC[C@H]2[C@]3(C)CC[C@H](O)C(C)(C)O[C@H]3CC[C@@]2(C)O)[C@](C)(C/C=C/C(C)(C)O)[C@H](O)CC1 | > 50 | 59 | 21.8 | > 50
CC1(C)O[C@H]2CC[C@@](C)(O)[C@@H](CC[C@@H]3C(CO)=CC[C@H]4[C@H](CC[C@]4(C)O)C3(C)C)[C@]2(C)CC[C@@H]1O | > 50 | 87.5 | > 50 | > 50
CC1(C)CC[C@](C)(O)[C@H]2C[C@H](O)[C@]3(C)O[C@]3(CC[C@H]3[C@]4(C)CC[C@H](O)C(C)(C)O[C@H]4CC[C@@]3(C)O)[C@H]21 | > 50 | 92.9 | > 50 | > 50
CC1=CC[C@H]2[C@H](CC[C@]2(C)O)C(C)(C)[C@@H]1CC[C@H]1[C@]2(C)CC[C@H](OC(=O)NS(=O)(=O)c3ccc(C)cc3)C(C)(C)O[C@H]2CC[C@@]1(C)O | 18 |  | > 50 | 47.1
CC(=O)O[C@H]1CC[C@]2(C)[C@H](CC[C@@](C)(O)[C@H]2CC[C@@H]2C(C)=CC[C@H]3[C@H](CC[C@]3(C)OC(C)=O)C2(C)C)OC1(C)C | 20.3 | 20.3 | 39.2 | 26.2
CC1=CCC2C(CC[C@@]2(C)O)C(C)(C)C1CC[C@@H]1[C@@]2(C)CC[C@@H](O)C(C)(C)O[C@@H]2CC[C@]1(C)O (stereo not given in full) [SIPHOLENOL A] | 37.5 | 37.5 | 44.5 | > 50
CC1=CC[C@H]2[C@@H]1CC=C(C)[C@@H](CC[C@H]1[C@]3(C)CC[C@H](OC(=O)c4ccc(Cl)cc4)C(C)(C)O[C@H]3CC[C@@]1(C)O)C2(C)C | 5.9 |  | 22 | 12.7
CC1=CC[C@H]2[C@@H]1CC=C(C)[C@@H](CC[C@H]1[C@]3(C)CC[C@H](OCc4ccccc4)C(C)(C)O[C@H]3CC[C@@]1(C)O)C2(C)C | 13.4 | 13.4 | > 50 | 35.7
CC1=CC[C@H]2[C@@H]1CC=C(C)[C@@H](CC[C@H]1[C@]3(C)CC[C@H](OC(=O)c4ccncc4)C(C)(C)O[C@H]3CC[C@@]1(C)O)C2(C)C | 9.5 | 9.51 | > 50 | 19.1
CC1=CC[C@H]2[C@H](CC[C@]2(C)O)C(C)(C)[C@@H]1CC[C@H]1[C@]2(C)CC/C(=N/O)C(C)(C)O[C@H]2CC[C@@]1(C)O | > 50 | 52.7 | 46.8 | 42.7
CC1(C)O[C@H]2CC[C@@](C)(O)[C@@H](CC[C@@H]3C(C=O)=CC[C@H]4[C@H](CC[C@]4(C)O)C3(C)C)[C@]2(C)CC[C@@H]1O | > 50 | 51.2 | > 50 | > 50
CC1=CC[C@H]2[C@H](CC[C@]2(C)O)C(C)(C)[C@@H]1CC[C@H]1[C@]2(C)CC[C@H](OCc3ccccc3)C(C)(C)O[C@H]2CC[C@@]1(C)O | 12.2 | 12.2 | > 50 | 29.1

Reference: ChEMBL document CHEMBL3112510, “Optimization, pharmacophore modeling and 3D-QSAR studies of sipholanes as breast cancer migration and proliferation inhibitors” (Eur J Med Chem, 2014)
